{"source": "paper PMC9239083", "about": "“C6 Hydroxymethyl-Substituted Carbapenem MA-1-206 Inhibits the Major Acinetobacter baumannii Carbapenemase OXA-23 by Impeding Deacylation” (mBio, 2022)", "molecular_target": "OXA-23 (Acinetobacter baumannii, UniProt Q9L4P2)", "sequence (Q9L4P2 18-273)": "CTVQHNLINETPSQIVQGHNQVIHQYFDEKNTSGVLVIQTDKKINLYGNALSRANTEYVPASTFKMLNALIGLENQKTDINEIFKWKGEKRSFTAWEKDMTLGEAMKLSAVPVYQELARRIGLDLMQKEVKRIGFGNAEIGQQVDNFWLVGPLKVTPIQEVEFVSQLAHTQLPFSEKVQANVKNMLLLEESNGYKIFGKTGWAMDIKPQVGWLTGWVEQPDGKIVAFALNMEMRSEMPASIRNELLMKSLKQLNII", "experiment": "X-ray crystal structures (seven soak time points); Ki by nitrocefin competition kinetics with purified enzyme", "format": "biochemical", "source_text": "X-ray crystal structures (seven soak time points); Ki by nitrocefin competition kinetics with purified enzyme on OXA-23 | The compound is covalently attached to the Ser79 side chain and anchored by six hydrogen bonds.", "data": [{"smiles": "CN(C)C(=O)[C@@H]1C[C@H](SC2=C(C(=O)O)N3C(=O)[C@H](CO)[C@H]3C2)CN1", "note": "[MA-1-206]", "values": [{"measurement": "Ki", "result": "26 ± 2", "unit": "nM"}]}]}
